Measured values published in patent publication US11098038B2, “Imidazole-based anticancer agents and derivatives thereof, and methods of making and using same” (The University of Toledo, priority 2017, dated 2021).

Key:
[1] = system: PC-3; assay: NCI 60 screen, PC-3; type: cell-based; settings: Homo sapiens, Prostatic
Description: (§1) The compounds synthesized were tested at the National Cancer Institute (NCI) for anti-proliferative activity in the 60 human tumor cell line assay.

[2] = system: MOLT-4; assay: NCI 60 screen, MOLT-4; type: cell-based; settings: Homo sapiens, Leukemia
Description: as §1

[3] = system: A549/ATCC; assay: NCI 60 screen, A549/ATCC; type: cell-based; settings: Homo sapiens, Non-Small Cell Lung
Description: as §1

[4] = system: 786-0; assay: NCI 60 screen, 786-0; type: cell-based; settings: Homo sapiens, Renal
Description: as §1

[5] = system: NCI-460; assay: NCI 60 screen, NCI-460; type: cell-based; settings: Homo sapiens, Non-Small Cell Lung
Description: as §1

[6] = system: HOP-62; assay: NCI 60 screen, HOP-62; type: cell-based; settings: Homo sapiens, Non-Small Cell Lung
Description: as §1

[7] = system: MDA-MB-468; assay: NCI 60 screen, MDA-MB-468; type: cell-based; settings: Homo sapiens, Breast
Description: as §1

[8] = system: NCI-H226; assay: NCI 60 screen, NCI-H226; type: cell-based; settings: Homo sapiens, Non-Small Cell Lung
Description: as §1

[9] = system: SF-295; assay: NCI 60 screen, SF-295; type: cell-based; settings: Homo sapiens, CNS
Description: as §1

[10] = system: NCI-H23; assay: NCI 60 screen, NCI-H23; type: cell-based; settings: Homo sapiens, Non-Small Cell Lung
Description: as §1

[11] = system: HT29; assay: NCI 60 screen, HT29; type: cell-based; settings: Homo sapiens, HT-29, Colon
Description: as §1

[12] = system: HOP-92; assay: NCI 60 screen, HOP-92; type: cell-based; settings: Homo sapiens, Non-Small Cell Lung
Description: as §1

[13] = system: IGROV1; assay: NCI 60 screen, IGROV1; type: cell-based; settings: Homo sapiens, IGROV-1, Ovarian
Description: as §1

[14] = system: EKVX; assay: NCI 60 screen, EKVX; type: cell-based; settings: Homo sapiens, Non-Small Cell Lung
Description: as §1

[15] = system: HS 578T; assay: NCI 60 screen, HS 578T; type: cell-based; settings: Homo sapiens, Breast
Description: as §1

[16] = system: RXF393; assay: NCI 60 screen, RXF393; type: cell-based; settings: Homo sapiens, RXF 393, Renal
Description: as §1

[17] = system: K-562; assay: NCI 60 screen, K-562; type: cell-based; settings: Homo sapiens, K562, Leukemia
Description: as §1

[18] = system: SK-MEL-5; assay: NCI 60 screen, SK-MEL-5; type: cell-based; settings: Homo sapiens, Melanoma
Description: as §1

[19] = system: BT-549; assay: NCI 60 screen, BT-549; type: cell-based; settings: Homo sapiens, Breast
Description: as §1

[20] = system: SNB-75; assay: NCI 60 screen, SNB-75; type: cell-based; settings: Homo sapiens, CNS
Description: as §1

[21] = system: MDA-MB-435; assay: NCI 60 screen, MDA-MB-435; type: cell-based; settings: Homo sapiens, Melanoma
Description: as §1

[22] = system: NCI-H522; assay: NCI 60 screen, NCI-H522; type: cell-based; settings: Homo sapiens, Non-Small Cell Lung
Description: as §1

[23] = system: TK-10; assay: NCI 60 screen, TK-10; type: cell-based; settings: Homo sapiens, Renal
Description: as §1

[24] = system: UO-31; assay: NCI 60 screen, UO-31; type: cell-based; settings: Homo sapiens, Renal
Description: as §1

[25] = system: CAKI-1; assay: NCI 60 screen, CAKI-1; type: cell-based; settings: Homo sapiens, Renal
Description: as §1

[26] = system: UACC-62; assay: NCI 60 screen, UACC-62; type: cell-based; settings: Homo sapiens, Melanoma
Description: as §1

[27] = system: SR; assay: NCI 60 screen, SR; type: cell-based; settings: Homo sapiens, Leukemia
Description: as §1

[28] = system: CCRF-CEM; assay: NCI 60 screen, CCRF-CEM; type: cell-based; settings: Homo sapiens, Leukemia
Description: as §1

[29] = system: MDA-MB-231/ATCC; assay: NCI 60 screen, MDA-MB-231/ATCC; type: cell-based; settings: Homo sapiens, Breast
Description: as §1

[30] = system: UACC-257; assay: NCI 60 screen, UACC-257; type: cell-based; settings: Homo sapiens, Melanoma
Description: as §1

[31] = system: SK-MEL-2; assay: NCI 60 screen, SK-MEL-2 (second line); type: cell-based; settings: Homo sapiens; Melanoma, SK-MEL-2 (second of two lines so named, r38)
Description: as §1

[32] = system: SN12C; assay: NCI 60 screen, SN12C; type: cell-based; settings: Homo sapiens, Renal
Description: as §1

[33] = system: OVCAR-5; assay: NCI 60 screen, OVCAR-5; type: cell-based; settings: Homo sapiens, Ovarian
Description: as §1

[34] = system: RPMI-8226; assay: NCI 60 screen, RPMI-8226; type: cell-based; settings: Homo sapiens, Leukemia
Description: as §1

[35] = system: SF-539; assay: NCI 60 screen, SF-539; type: cell-based; settings: Homo sapiens, CNS
Description: as §1

[36] = system: KM12; assay: NCI 60 screen, KM12; type: cell-based; settings: Homo sapiens, Colon
Description: as §1

[37] = system: SK-OV-3; assay: NCI 60 screen, SK-OV-3; type: cell-based; settings: Homo sapiens, Ovarian
Description: as §1

[38] = system: DU-145; assay: NCI 60 screen, DU-145; type: cell-based; settings: Homo sapiens, Prostatic
Description: as §1

[39] = system: NCI-322M; assay: NCI 60 screen, NCI-322M; type: cell-based; settings: Homo sapiens, Non-Small Cell Lung
Description: as §1

[40] = system: MALME-3M; assay: NCI 60 screen, MALME-3M; type: cell-based; settings: Homo sapiens, Melanoma
Description: as §1

[41] = system: OVCAR-3; assay: NCI 60 screen, OVCAR-3; type: cell-based; settings: Homo sapiens, Ovarian
Description: as §1

[42] = system: LOX IMVI; assay: NCI 60 screen, LOX IMVI; type: cell-based; settings: Homo sapiens, Melanoma
Description: as §1

[43] = system: COLO 205; assay: NCI 60 screen, COLO 205; type: cell-based; settings: Homo sapiens, Colon
Description: as §1

[44] = system: T-47D; assay: NCI 60 screen, T-47D; type: cell-based; settings: Homo sapiens, T47D, Breast
Description: as §1

[45] = system: SK-MEL-2; assay: NCI 60 screen, SK-MEL-2 (first line); type: cell-based; settings: Homo sapiens; Melanoma, SK-MEL-2 (first of two lines so named, r37)
Description: as §1

[46] = system: M14; assay: NCI 60 screen, M14; type: cell-based; settings: Homo sapiens, Melanoma
Description: as §1

[47] = system: HCT-116; assay: NCI 60 screen, HCT-116; type: cell-based; settings: Homo sapiens, Colon
Description: as §1

[48] = system: U251; assay: NCI 60 screen, U251; type: cell-based; settings: Homo sapiens, U-251, CNS
Description: as §1

[49] = system: HCC-2998; assay: NCI 60 screen, HCC-2998; type: cell-based; settings: Homo sapiens, Colon
Description: as §1

[50] = system: NCI/ADR-RES; assay: NCI 60 screen, NCI/ADR-RES; type: cell-based; settings: Homo sapiens, Ovarian
Description: as §1

[51] = system: SF-268; assay: NCI 60 screen, SF-268; type: cell-based; settings: Homo sapiens, CNS
Description: as §1

[52] = system: OVCAR-8; assay: NCI 60 screen, OVCAR-8; type: cell-based; settings: Homo sapiens, Ovarian
Description: as §1

[53] = system: HCT15; assay: NCI 60 screen, HCT15; type: cell-based; settings: Homo sapiens, HCT-15, Colon
Description: as §1

[54] = system: HL-60(TB); assay: NCI 60 screen, HL-60(TB); type: cell-based; settings: Homo sapiens, Leukemia
Description: as §1

[55] = system: MCF7; assay: NCI 60 screen, MCF7; type: cell-based; settings: Homo sapiens, Breast
Description: as §1

[56] = system: SW-620; assay: NCI 60 screen, SW-620; type: cell-based; settings: Homo sapiens, Colon
Description: as §1

[57] = system: ACHN; assay: NCI 60 screen, ACHN; type: cell-based; settings: Homo sapiens, Renal
Description: as §1

[58] = system: A498; assay: NCI 60 screen, A498; type: cell-based; settings: Homo sapiens, Renal
Description: as §1

[59] = system: SNB-19; assay: NCI 60 screen, SNB-19; type: cell-based; settings: Homo sapiens, CNS
Description: as §1

[60] = system: OVCAR-4; assay: NCI 60 screen, OVCAR-4; type: cell-based; settings: Homo sapiens, Ovarian
Description: as §1

`O=C(Cc1ccc(/C=C/C(=O)c2ncc[nH]2)cc1)Nc1ccc(C(F)(F)F)cc1` [Compound 24, (E)-2-(4-(3-(1H-imidazole-2-yl)-3-oxoprop-1-en-1-yl)phenyl)-N-(4-(trifluoromethyl)phenyl) acetamide] gave a GI50 [1] of 2.81 µM, a GI50 [2] of 2.29 µM and a GI50 [3] of 6.37 µM. The GI50 [4] was 1.4 µM, the GI50 [5] was 3.6 µM and the GI50 [6] was 4.8 µM. For the same compound, the GI50 [7] was 1.77 µM, the GI50 [8] was 6.11 µM and the GI50 [9] was 4.08 µM. For the same compound, the GI50 [10] was 3.42 µM, the GI50 [11] was 1.09 µM and the GI50 [12] was 4.89 µM. The GI50 [13] was 3.84 µM, the GI50 [14] was 5.57 µM and the GI50 [15] was 5.88 µM. The melting point was 240.5 °C, the GI50 [16] was 3.75 µM and the GI50 [17] was 1.24 µM. The GI50 [18] was 5.55 µM, the GI50 [19] was 2.11 µM and the GI50 [20] was 3.97 µM. The GI50 [21] was 2.87 µM, the GI50 [22] was 4.87 µM and the GI50 [23] was 6.63 µM. For the same compound, the GI50 [24] was 2.43 µM, the GI50 [25] was 4.43 µM and the GI50 [26] was 4.47 µM. The GI50 [27] was 0.843 µM, the GI50 [28] was 1.55 µM and the GI50 [29] was 2.79 µM. The GI50 [30] was 7.2 µM, the GI50 [31] was 5.32 µM and the GI50 [32] was 1.87 µM. The GI50 [33] was 4.89 µM, the GI50 [34] was 0.78 µM and the GI50 [35] was 4.52 µM. The GI50 [36] was 1.11 µM, the GI50 [37] was 7.66 µM and the GI50 [38] was 2.13 µM. It also gave a GI50 [39] of 4.68 µM, a GI50 [40] of 5.18 µM and a GI50 [41] of 1.09 µM. For the same compound, the GI50 [42] was 0.469 µM, the GI50 [43] was 5.38 µM and the GI50 [44] was 3.97 µM. The GI50 [45] was 7.09 µM, the GI50 [46] was 2.58 µM and the GI50 [47] was 0.694 µM. For the same compound, the GI50 [48] was 1.22 µM, the GI50 [49] was 3.97 µM and the GI50 [50] was 8.96 µM. The GI50 [51] was 3.05 µM, the GI50 [52] was 7.99 µM and the GI50 [53] was 1.04 µM. It also gave a GI50 [54] of 2.03 µM, a GI50 [55] of 0.851 µM and a GI50 [56] of 1.35 µM. For the same compound, the GI50 [57] was 6.33 µM, the GI50 [58] was 4.73 µM and the GI50 [59] was 2.79 µM. It also gave a GI50 [60] of 5.12 µM.
